This experiment has as its target T1, Recombinant human TLR7 (Homo sapiens, UniProt Q9NYK1).
T1 construct: expressed in transfected cells; host or cells: HEK293 cell line stably expressing the pNiFty2-SEAP reporter plasmid; TLR7 in vector pUNO, blasticidin selection
T1 sequence (Q9NYK1 27-1049): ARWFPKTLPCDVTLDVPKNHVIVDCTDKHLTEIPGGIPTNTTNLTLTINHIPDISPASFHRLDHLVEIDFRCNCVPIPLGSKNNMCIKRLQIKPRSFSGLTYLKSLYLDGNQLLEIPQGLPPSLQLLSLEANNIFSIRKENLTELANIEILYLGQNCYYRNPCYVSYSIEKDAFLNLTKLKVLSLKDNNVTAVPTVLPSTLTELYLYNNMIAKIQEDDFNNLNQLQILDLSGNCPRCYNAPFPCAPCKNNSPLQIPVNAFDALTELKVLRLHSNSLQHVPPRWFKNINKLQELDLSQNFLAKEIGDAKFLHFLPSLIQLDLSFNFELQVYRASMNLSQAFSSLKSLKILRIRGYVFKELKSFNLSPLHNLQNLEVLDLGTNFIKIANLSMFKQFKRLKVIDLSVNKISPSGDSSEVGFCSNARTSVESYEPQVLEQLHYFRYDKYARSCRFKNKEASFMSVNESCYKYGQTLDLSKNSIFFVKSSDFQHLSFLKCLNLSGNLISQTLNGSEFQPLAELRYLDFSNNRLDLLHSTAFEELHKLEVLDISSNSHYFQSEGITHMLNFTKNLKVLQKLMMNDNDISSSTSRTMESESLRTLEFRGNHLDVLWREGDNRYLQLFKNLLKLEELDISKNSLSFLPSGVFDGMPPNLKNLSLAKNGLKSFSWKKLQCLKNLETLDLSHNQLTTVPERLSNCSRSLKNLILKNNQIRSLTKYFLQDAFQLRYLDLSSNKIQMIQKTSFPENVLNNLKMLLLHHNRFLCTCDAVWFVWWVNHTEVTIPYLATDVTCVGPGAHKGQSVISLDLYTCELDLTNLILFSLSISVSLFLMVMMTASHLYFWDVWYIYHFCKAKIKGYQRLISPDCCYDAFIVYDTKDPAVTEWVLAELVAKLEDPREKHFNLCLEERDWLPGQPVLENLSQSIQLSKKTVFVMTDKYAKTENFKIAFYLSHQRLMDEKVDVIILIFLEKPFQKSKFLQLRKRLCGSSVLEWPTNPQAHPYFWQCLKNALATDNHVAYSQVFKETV
Nature of the experiment: Human TLR7 Assay (SEAP reporter).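 Also: SEAP driven by an NFkB-responsive composite promoter, pEC50 read at half of each compound's own maximal SEAP induction.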 The format is cell-based. Conditions: HEK293 cell line stably expressing human TLR7 and pNiFty2-SEAP reporter; SEAP induction after overnight incubation at 37° C., 0.1% (v/v) DMSO.

Results on 24 molecules are retold here after US8268990B2, “Compounds” (AstraZeneca AB, priority 2007, dated 2012).

From the text: Recombinant human TLR7 was stably expressed in a HEK293 cell line already stably expressing the pNiFty2-SEAP reporter plasmid; integration of the reporter gene was maintained by selection with the antibiotic zeocin. The most common variant sequence of human TLR7 (represented by the EMBL sequence AF240467) was cloned into the mammalian cell expression vector pUNO and transfected into this reporter cell-line. Transfectants with stable expression were selected using the antibiotic blasticidin. In this reporter cell-line, expression of secreted alkaline phosphatase (SEAP) is controlled by an NFkB/ELAM-1 composite promoter comprising five NFkB sites combined with the proximal ELAM-1 promoter. TLR signaling leads to the translocation of NFkB and activation of the promoter results in expression of the SEAP gene. TLR7-specific activation was assessed by determining the level of SEAP produced following overnight incubation of the cells at 37° C. with the standard compound in the presence of 0.1% (v/v) dimethylsulfoxide (DMSO). Concentration dependent induction of SEAP production by compounds was expressed as the concentration of compound which produced half of the maximal level of SEAP induction for that compound (pEC50).

The EC50 is the midpoint of the concentration-response curve. For `CCCCCNc1nc(N)nc(C)c1Cc1ccc(CC(=O)OCCCCN(C)C)cc1` [Example 57, 4-(Dimethylamino)butyl 2-(4-((2-amino-4-methyl-6-(pentylamino)pyrimidin-5-yl)methyl)phenyl)acetate], the 50% effective concentration (EC50) is 126 nM. As for `CCCCCNc1nc(N)nc(C)c1Cc1ccc(CC(=O)OCCCN2CCOCC2)cc1` [Example 58, 3-Morpholinopropyl 2-(4-((2-amino-4-methyl-6-(pentylamino)pyrimidin-5-yl)methyl)phenyl)acetate], the figure is 126 nM; as for `CCCCCNc1nc(N)nc(C)c1Cc1ccc(CC(=O)OC2CCN(C)CC2)cc1` [Example 59, 1-Methylpiperidin-4-yl 2-(4-((2-amino-4-methyl-6-(pentylamino)pyrimidin-5-yl)methyl)phenyl)acetate], 126 nM; as for `CCCCCNc1nc(N)nc(C)c1Cc1ccc(CC(=O)OCC2CCN(C)CC2)cc1` [Example 60, (1-Methylpiperidin-4-yl)methyl 2-(4-((2-amino-4-methyl-6-(pentylamino)pyrimidin-5-yl)methyl)phenyl)acetate], 200 nM. Next, `CCCCCNc1nc(N)nc(C)c1Cc1ccc(CC(=O)OCCCCN2CCCC2)cc1` [Example 61, 4-(Pyrrolidin-1-yl)butyl 2-(4-((2-amino-4-methyl-6-(pentylamino)pyrimidin-5-yl)methyl)phenyl)acetate]: 126 nM. As for `CCCCCNc1nc(N)nc(C)c1Cc1ccc(CC(=O)OCC2CCN(CCOC)CC2)cc1` [Example 62, (1-(2-Methoxyethyl)piperidin-4-yl)methyl 2-(4-((2-amino-4-methyl-6-(pentylamino)pyrimidin-5-yl)methyl)phenyl)acetate], the figure is 200 nM; as for `CCCCCNc1nc(N)nc(C)c1Cc1ccc(CC(=O)OCCCCN2CCN(C)CC2)cc1` [Example 63, 4-(4-Methylpiperazin-1-yl)butyl 2-(4-((2-amino-4-methyl-6-(pentylamino)pyrimidin-5-yl)methyl)phenyl)acetate], 158 nM; as for `CCCCCNc1nc(N)nc(C)c1Cc1ccc(CC(=O)OCCCCN2CCS(=O)(=O)CC2)cc1` [Example 64, 4-(1,1-Dioxidothiomorpholin-4-yl)butyl(4-{[2-amino-4-methyl-6-(pentylamino)pyrimidin-5-yl]methyl}phenyl)acetate], 2510 nM. For the molecule `CCCCCNc1nc(N)nc(C)c1Cc1ccc(CC(=O)OCCC2CCN(C)CC2)cc1` [Example 66, 2-(1-Methylpiperidin-4-yl)ethyl 2-(4-((2-amino-4-methyl-6-(pentylamino)pyrimidin-5-yl)methyl)phenyl)acetate], the concentration for a half-maximal effect (EC50) is 158 nM. Next, `CCCCCNc1nc(N)nc(C)c1Cc1ccc(CC(=O)OCC2CCNCC2)cc1` [Example 67, Piperidin-4-ylmethyl 2-(4-((2-amino-4-methyl-6-(pentylamino)pyrimidin-5-yl)methyl)phenyl)acetate]: 794 nM; `CCCCCNc1nc(N)nc(C)c1Cc1ccc(CC(=O)OCCCCN2CCC(N(C)C)CC2)cc1` [Example 68, 4-(4-(Dimethylamino)piperidin-1-yl)butyl 2-(4-((2-amino-4-methyl-6-(pentylamino)pyrimidin-5-yl)methyl)phenyl)acetate]: 631 nM. Next, `CCCCNc1nc(N)nc(C)c1Cc1ccc(CC(=O)OCC2CCN(C)CC2)cc1` [Example 69, (1-Methylpiperidin-4-yl)methyl 2-(4-((2-amino-4-(butylamino)-6-methylpyrimidin-5-yl)methyl)phenyl)acetate]: 126 nM. As for `CCC[C@@H](CO)Nc1nc(N)nc(C)c1Cc1ccc(CC(=O)OCCCCN(C)C)cc1` [Example 70, (S)-4-(Dimethylamino)butyl 2-(4-((2-amino-4-(1-hydroxypentan-2-ylamino)-6-methylpyrimidin-5-yl)methyl)phenyl)acetate], the figure is 1260 nM; as for `CCC[C@@H](CO)Nc1nc(N)nc(C)c1Cc1ccc(CC(=O)OCC2CCN(C)CC2)cc1OC` [Example 71, (S)-(1-Methylpiperidin-4-yl)methyl 2-(4-((2-amino-4-(1-hydroxypentan-2-ylamino)-6-methylpyrimidin-5-yl)methyl)-3-methoxyphenyl)acetate], 20 nM; as for `CCCCNc1nc(N)nc(C)c1Cc1ccc(CC(=O)OCC2CCN(C)CC2)cc1OC` [Example 72, (1-Methylpiperidin-4-yl)methyl 2-(4-((2-amino-4-(butylamino)-6-methylpyrimidin-5-yl)methyl)-3-methoxyphenyl)acetate], 15.8 nM. For `CCCCNc1nc(N)nc(C)c1Cc1ccc(CC(=O)OCCCCN2CCCC2)cc1OC` [Example 73, 4-(Pyrrolidin-1-yl)butyl 2-(4-((2-amino-4-(butylamino)-6-methylpyrimidin-5-yl)methyl)-3-methoxyphenyl)acetate], the concentration giving a half-maximal response (EC50) was 5.01 nM. As for `CCC[C@@H](CCO)Nc1nc(N)nc(C)c1Cc1ccc(CC(=O)OCC2CCN(C)CC2)cc1F` [Example 74, (S)-(1-Methylpiperidin-4-yl)methyl 2-(4-((2-amino-4-(1-hydroxyhexan-3-ylamino)-6-methylpyrimidin-5-yl)methyl)-3-fluorophenyl)acetate], the figure is 39.8 nM; as for `CCC[C@@H](CCO)Nc1nc(N)nc(C)c1Cc1ccc(CC(=O)OC)cc1O` [Example 75, (S)-Methyl 2-(4-((2-amino-4-(1-hydroxyhexan-3-ylamino)-6-methylpyrimidin-5-yl)methyl)-3-hydroxyphenyl)acetate], 6.31 nM; as for `CCC[C@@H](CO)Nc1nc(N)nc(C)c1Cc1ccc(CC(=O)OCC2CCN(C)CC2)cc1O` [Example 76, (S)-(1-Methylpiperidin-4-yl)methyl 2-(4-((2-amino-4-(1-hydroxypentan-2-ylamino)-6-methylpyrimidin-5-yl)methyl)-3-hydroxyphenyl)acetate], 631 nM.

`CCCCNc1nc(N)nc(C)c1Cc1ccc(CC(=O)OC)cc1O` [Example 77, Methyl 2-(4-((2-amino-4-(butylamino)-6-methylpyrimidin-5-yl)methyl)-3-hydroxyphenyl)acetate]: the EC50 was 63.1 nM. As for `CCC[C@@H](CCO)Nc1nc(N)nc(C)c1Cc1ccc(CC(=O)OCCCCN2CCCC2)cc1O` [Example 78, (S)-4-(Pyrrolidin-1-yl)butyl 2-(4-((2-amino-4-(1-hydroxyhexan-3-ylamino)-6-methylpyrimidin-5-yl)methyl)-3-hydroxyphenyl)acetate], the figure is 50.1 nM; as for `CCCCNc1nc(N)nc(C)c1Cc1ccc(CC(=O)OCCCCN2CCCC2)cc1O` [Example 79, 4-(Pyrrolidin-1-yl)butyl 2-(4-((2-amino-4-(butylamino)-6-methylpyrimidin-5-yl)methyl)-3-hydroxyphenyl)acetate], 126 nM. `CC[C@H](O)CNc1nc(N)nc(C)c1Cc1ccc(CC(=O)OCC2CCN(C)CC2)cc1` [Example 81, (S)-(1-Methylpiperidin-4-yl)methyl 2-(4-((2-amino-4-(2-hydroxybutylamino)-6-methylpyrimidin-5-yl)methyl)phenyl)acetate]: the EC50 was 1000 nM. Next, `CCCCNc1nc(N)nc(C)c1Cc1ccc(CC(=O)OCCCCN2CCCC2)cc1` [Example 82, 4-(Pyrrolidin-1-yl)butyl 2-(4-((2-amino-4-(butylamino)-6-methylpyrimidin-5-yl)methyl)phenyl)acetate]: 100 nM.
